The values below are quoted from earlier work in PMC11558673, “Exploring LCST- and UCST-like Behavior of Branched Molecules Bearing Repeat Units of Elastin-like Peptides as Side Components” (Biomacromolecules, 2024).

For this series the following is noted: monomeric pentapeptide; cited from earlier work. The text has this:
Short ELPs with a (VPGVG)n sequence ...

Turning to “H-FPGVG-NH2 [F1, monomeric elastin-like pentapeptide Phe-Pro-Gly-Val-Gly amide]”, the “Coacervation (LCST-like behavior)” value was “did not show coacervation”.
